Experimental data: paper PMC5529566, “The cryo-EM structure of gastric H^+,K^+-ATPase with bound BYK99, a high-affinity member of K^+-competitive, imidazo[1,2-a]pyridine inhibitors” (Scientific Reports, 2017)

Tests used:
[1] = target: T1, H^+,K^+-ATPase WT (Sus scrofa, UniProt P19156); assay: K^+-competitive inhibition of H^+,K^+-ATPase activity, 96-well ATPase assay, wild-type; format: biochemical, pig
T1 construct: made in house; host or cells: HEK293S GnT1- cells (BacMam baculovirus transduction); permeabilised membrane fractions

[2] = target: H^+,K^+-ATPase D136A (Sus scrofa, UniProt P19156, D137A); assay: ATPase assay, D136A mutant
[3] = target: H^+,K^+-ATPase D136L (Sus scrofa, UniProt P19156, D137L); assay: ATPase assay, D136L mutant
[4] = target: H^+,K^+-ATPase D136I (Sus scrofa, UniProt P19156, D137I); assay: ATPase assay, D136I mutant
[5] = target: H^+,K^+-ATPase D136F (Sus scrofa, UniProt P19156, D137F); assay: ATPase assay, D136F mutant
[6] = target: H^+,K^+-ATPase D137A (Sus scrofa, UniProt P19156, D138A); assay: ATPase assay, D137A mutant
[7] = target: H^+,K^+-ATPase D137L (Sus scrofa, UniProt P19156, D138L); assay: ATPase assay, D137L mutant
[8] = target: H^+,K^+-ATPase D137I (Sus scrofa, UniProt P19156, D138I); assay: ATPase assay, D137I mutant
[9] = target: H^+,K^+-ATPase D137F (Sus scrofa, UniProt P19156, D138F); assay: ATPase assay, D137F mutant
[10] = target: H^+,K^+-ATPase N138A (Sus scrofa, UniProt P19156, N139A); assay: ATPase assay, N138A mutant
[11] = target: H^+,K^+-ATPase N138L (Sus scrofa, UniProt P19156, N139L); assay: ATPase assay, N138L mutant
[12] = target: H^+,K^+-ATPase N138I (Sus scrofa, UniProt P19156, N139I); assay: ATPase assay, N138I mutant
[13] = target: H^+,K^+-ATPase N138F (Sus scrofa, UniProt P19156, N139F); assay: ATPase assay, N138F mutant
[14] = target: H^+,K^+-ATPase L139A (Sus scrofa, UniProt P19156, L140A); assay: ATPase assay, L139A mutant
[15] = target: H^+,K^+-ATPase L139I (Sus scrofa, UniProt P19156, L140I); assay: ATPase assay, L139I mutant
[16] = target: H^+,K^+-ATPase L139F (Sus scrofa, UniProt P19156, L140F); assay: ATPase assay, L139F mutant
[17] = target: H^+,K^+-ATPase Y140A (Sus scrofa, UniProt P19156, Y141A); assay: ATPase assay, Y140A mutant
[18] = target: H^+,K^+-ATPase Y140L (Sus scrofa, UniProt P19156, Y141L); assay: ATPase assay, Y140L mutant
[19] = target: H^+,K^+-ATPase Y140I (Sus scrofa, UniProt P19156, Y141I); assay: ATPase assay, Y140I mutant
[20] = target: H^+,K^+-ATPase Y140F (Sus scrofa, UniProt P19156, Y141F); assay: ATPase assay, Y140F mutant
[21] = target: H^+,K^+-ATPase L141I (Sus scrofa, UniProt P19156, L142I); assay: ATPase assay, L141I mutant
[22] = target: H^+,K^+-ATPase A335G (Sus scrofa, UniProt P19156, A336G); assay: ATPase assay, A335G mutant
[23] = target: H^+,K^+-ATPase Y799A (Sus scrofa, UniProt P19156, Y800A); assay: ATPase assay, Y799A mutant
[24] = target: H^+,K^+-ATPase Y799F (Sus scrofa, UniProt P19156, Y800F); assay: ATPase assay, Y799F mutant
[25] = target: H^+,K^+-ATPase (Sus scrofa, UniProt P19156); assay: Dose-dependent inhibition of H^+,K^+-ATPase activity in the presence of 10 mM KCl
Procedure: Reactions were initiated by incubating at 37 °C using a thermal cycler, and maintained for 1 to 5 h (depending on the activity). Reactions were terminated by withdrawing 40 μL from the 80 μL reactant, and mixing with 80 μL of stop solution comprising 6% ascorbic acid and 2% ammonium molybdate in 1 N HCl, followed by the addition of 120 μL of 2% sodium arsenate, 2% sodium citrate, and 2% acetic acid. The amount of released inorganic phosphate was determined colorimetrically[39] from absorbance at 850 nm by the microplate reader (TECAN).

T1 sequence (P19156 whole entry): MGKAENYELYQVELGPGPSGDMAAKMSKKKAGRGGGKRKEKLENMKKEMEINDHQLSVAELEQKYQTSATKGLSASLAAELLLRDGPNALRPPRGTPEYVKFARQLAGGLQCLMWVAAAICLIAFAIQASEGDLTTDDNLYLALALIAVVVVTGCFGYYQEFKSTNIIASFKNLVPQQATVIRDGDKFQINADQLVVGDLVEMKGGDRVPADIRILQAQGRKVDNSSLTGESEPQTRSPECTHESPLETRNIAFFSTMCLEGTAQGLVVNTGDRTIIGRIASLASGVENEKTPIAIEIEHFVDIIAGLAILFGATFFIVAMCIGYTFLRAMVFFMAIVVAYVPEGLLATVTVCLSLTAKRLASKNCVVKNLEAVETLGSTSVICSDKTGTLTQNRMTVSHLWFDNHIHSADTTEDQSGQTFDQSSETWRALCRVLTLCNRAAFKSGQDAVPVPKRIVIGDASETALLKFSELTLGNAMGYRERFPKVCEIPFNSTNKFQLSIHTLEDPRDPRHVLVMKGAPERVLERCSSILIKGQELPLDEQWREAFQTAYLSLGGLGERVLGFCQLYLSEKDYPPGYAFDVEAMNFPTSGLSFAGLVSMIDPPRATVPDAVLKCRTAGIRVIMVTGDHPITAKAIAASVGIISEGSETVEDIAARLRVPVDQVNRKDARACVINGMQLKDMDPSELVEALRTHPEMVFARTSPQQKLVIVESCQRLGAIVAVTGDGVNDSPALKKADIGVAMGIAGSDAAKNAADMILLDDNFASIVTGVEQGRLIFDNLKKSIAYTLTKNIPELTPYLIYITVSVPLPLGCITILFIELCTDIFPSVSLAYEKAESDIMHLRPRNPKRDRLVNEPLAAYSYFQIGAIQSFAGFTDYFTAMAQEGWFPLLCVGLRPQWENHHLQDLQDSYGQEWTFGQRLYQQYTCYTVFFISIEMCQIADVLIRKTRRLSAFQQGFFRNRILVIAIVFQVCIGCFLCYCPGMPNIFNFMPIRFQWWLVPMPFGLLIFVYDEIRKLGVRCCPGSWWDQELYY
T1 sequence (P18434 whole entry partner): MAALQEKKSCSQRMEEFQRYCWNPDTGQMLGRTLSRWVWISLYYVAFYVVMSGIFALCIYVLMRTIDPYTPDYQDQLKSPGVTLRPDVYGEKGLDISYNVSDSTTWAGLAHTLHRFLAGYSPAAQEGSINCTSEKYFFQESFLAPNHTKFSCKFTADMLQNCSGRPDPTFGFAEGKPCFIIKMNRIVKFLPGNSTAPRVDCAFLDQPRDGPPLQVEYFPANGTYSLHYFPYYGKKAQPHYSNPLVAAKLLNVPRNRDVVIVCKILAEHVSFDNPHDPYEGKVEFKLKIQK
Chain of H^+,K^+-ATPase A335G (P19156 whole entry A336G): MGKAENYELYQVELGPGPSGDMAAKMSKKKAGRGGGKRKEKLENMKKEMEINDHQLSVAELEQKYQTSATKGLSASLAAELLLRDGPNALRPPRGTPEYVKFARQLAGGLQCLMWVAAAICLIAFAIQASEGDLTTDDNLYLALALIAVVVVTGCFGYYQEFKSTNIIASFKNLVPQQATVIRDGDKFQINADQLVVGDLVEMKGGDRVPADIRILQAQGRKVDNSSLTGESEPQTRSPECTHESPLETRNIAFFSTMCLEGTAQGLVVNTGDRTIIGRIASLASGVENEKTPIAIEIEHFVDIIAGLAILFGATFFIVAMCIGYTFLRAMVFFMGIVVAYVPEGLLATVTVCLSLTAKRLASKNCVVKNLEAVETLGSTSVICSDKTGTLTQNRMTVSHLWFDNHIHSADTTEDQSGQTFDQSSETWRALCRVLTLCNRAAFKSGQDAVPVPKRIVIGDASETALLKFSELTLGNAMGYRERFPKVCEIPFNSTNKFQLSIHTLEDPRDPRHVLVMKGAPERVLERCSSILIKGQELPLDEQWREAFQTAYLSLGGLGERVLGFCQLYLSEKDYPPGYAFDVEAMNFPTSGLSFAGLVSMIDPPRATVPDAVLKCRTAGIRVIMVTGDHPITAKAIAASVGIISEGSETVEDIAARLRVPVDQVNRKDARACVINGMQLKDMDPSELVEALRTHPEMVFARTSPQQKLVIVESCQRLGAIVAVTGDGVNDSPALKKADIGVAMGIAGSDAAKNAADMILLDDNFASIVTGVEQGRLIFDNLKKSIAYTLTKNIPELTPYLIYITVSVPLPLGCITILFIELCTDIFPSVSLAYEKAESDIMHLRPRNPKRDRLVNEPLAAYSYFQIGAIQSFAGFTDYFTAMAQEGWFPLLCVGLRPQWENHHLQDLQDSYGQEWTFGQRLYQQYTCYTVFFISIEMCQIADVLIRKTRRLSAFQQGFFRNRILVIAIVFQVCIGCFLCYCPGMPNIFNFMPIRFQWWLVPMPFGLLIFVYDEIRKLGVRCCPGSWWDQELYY
Chain of H^+,K^+-ATPase A335G (P18434 whole entry partner): as the sequence (P18434 whole entry partner) above
Chain of H^+,K^+-ATPase L141I (P19156 whole entry L142I): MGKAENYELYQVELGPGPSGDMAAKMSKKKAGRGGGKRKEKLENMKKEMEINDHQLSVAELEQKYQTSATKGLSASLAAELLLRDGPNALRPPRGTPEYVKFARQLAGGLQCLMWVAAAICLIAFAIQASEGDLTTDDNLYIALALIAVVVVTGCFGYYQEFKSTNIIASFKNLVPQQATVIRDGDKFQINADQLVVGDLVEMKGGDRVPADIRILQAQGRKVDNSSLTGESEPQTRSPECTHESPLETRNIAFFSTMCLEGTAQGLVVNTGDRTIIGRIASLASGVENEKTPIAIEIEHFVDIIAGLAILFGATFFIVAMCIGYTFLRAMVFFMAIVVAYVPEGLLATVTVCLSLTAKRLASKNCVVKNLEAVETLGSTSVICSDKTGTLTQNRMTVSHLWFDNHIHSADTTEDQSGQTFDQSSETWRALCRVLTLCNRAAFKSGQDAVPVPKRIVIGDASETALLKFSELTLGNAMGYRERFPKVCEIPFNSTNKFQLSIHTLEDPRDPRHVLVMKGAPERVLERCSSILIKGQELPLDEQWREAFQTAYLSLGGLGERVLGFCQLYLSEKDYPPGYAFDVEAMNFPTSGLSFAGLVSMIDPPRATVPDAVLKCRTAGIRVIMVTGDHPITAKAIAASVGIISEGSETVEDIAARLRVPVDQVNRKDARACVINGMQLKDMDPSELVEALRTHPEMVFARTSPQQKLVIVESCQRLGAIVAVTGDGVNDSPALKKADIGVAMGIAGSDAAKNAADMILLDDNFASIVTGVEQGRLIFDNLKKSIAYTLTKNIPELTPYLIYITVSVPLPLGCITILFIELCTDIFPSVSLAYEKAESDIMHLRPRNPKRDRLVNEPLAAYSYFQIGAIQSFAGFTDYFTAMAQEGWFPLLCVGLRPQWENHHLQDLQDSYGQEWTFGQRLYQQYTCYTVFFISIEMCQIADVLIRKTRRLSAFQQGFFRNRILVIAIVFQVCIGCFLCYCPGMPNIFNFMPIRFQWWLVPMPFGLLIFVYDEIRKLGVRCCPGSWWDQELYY
Chain of H^+,K^+-ATPase L141I (P18434 whole entry partner): as the sequence (P18434 whole entry partner) above
Chain of H^+,K^+-ATPase Y799A (P19156 whole entry Y800A): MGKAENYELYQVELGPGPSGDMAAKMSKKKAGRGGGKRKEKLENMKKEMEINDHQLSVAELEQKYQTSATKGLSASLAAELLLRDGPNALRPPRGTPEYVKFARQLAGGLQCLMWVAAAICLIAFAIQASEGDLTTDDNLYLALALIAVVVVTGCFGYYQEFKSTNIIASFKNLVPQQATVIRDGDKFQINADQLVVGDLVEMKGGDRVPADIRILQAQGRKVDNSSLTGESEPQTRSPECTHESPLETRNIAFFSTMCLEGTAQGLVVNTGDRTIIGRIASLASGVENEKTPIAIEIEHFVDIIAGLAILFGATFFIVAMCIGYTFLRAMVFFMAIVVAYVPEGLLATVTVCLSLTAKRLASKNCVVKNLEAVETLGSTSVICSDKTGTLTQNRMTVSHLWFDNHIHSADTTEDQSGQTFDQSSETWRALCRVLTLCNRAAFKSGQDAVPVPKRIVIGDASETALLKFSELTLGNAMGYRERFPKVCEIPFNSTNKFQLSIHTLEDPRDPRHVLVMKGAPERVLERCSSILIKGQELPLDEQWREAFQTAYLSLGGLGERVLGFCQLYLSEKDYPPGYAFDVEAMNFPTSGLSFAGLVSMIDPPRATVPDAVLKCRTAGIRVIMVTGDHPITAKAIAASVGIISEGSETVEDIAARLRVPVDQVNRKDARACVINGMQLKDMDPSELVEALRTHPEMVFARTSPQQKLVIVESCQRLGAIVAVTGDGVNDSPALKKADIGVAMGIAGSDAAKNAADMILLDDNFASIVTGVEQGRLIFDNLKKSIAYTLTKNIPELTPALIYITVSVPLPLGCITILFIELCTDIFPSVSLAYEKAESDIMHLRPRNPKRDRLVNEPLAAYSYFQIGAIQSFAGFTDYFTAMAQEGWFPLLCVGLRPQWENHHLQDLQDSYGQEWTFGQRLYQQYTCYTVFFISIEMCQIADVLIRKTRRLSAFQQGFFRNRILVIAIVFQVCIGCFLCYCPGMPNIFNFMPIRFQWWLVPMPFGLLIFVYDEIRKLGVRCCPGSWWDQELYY
Chain of H^+,K^+-ATPase Y799A (P18434 whole entry partner): as the sequence (P18434 whole entry partner) above

-fold increase in K i compared with wild-type ([1]; WT): 1.0 fold | fold lower affinity compared with BYK99 ([1]; WT enzyme): 1000 fold | Ki ([1]; WT, global fitting, mean ± SEM): 4.9 ± 0.4 µM | Ki [2]: 9 ± 0.5 µM | -fold increase in K i compared with wild-type ([2]; D136A): 1.8 fold | Ki [3]: 3.2 ± 0.2 µM | -fold increase in K i compared with wild-type ([3]; D136L): 0.7 fold | Ki [4]: 6.7 ± 0.4 µM | -fold increase in K i compared with wild-type ([4]; D136I): 1.4 fold | Ki [5]: 4 ± 0.2 µM | -fold increase in K i compared with wild-type ([5]; D136F): 0.8 fold | Ki [6]: 120 ± 30 µM | -fold increase in K i compared with wild-type ([6]; D137A): 25 fold | Ki [7]: > 100 µM | -fold increase in K i compared with wild-type ([7]; D137L): > 20 fold | Ki [8]: 32 ± 5 µM | -fold increase in K i compared with wild-type ([8]; D137I): 6.5 fold | Ki [9]: 110 ± 10 µM | -fold increase in K i compared with wild-type ([9]; D137F): 22 fold | Ki [10]: 6.6 ± 0.8 µM | -fold increase in K i compared with wild-type ([10]; N138A): 1.3 fold | Ki [11]: > 100 µM | -fold increase in K i compared with wild-type ([11]; N138L): > 20 fold | Ki [12]: 62 ± 17 µM | -fold increase in K i compared with wild-type ([12]; N138I): 13 fold | Ki [13]: > 100 µM | -fold increase in K i compared with wild-type ([13]; N138F): > 20 fold | Ki [14]: 5.8 ± 0.6 µM | -fold increase in K i compared with wild-type ([14]; L139A): 1.2 fold | Ki [15]: 1.7 ± 0.2 µM | -fold increase in K i compared with wild-type ([15]; L139I): 0.3 fold | Ki [16]: 8.9 ± 0.7 µM | -fold increase in K i compared with wild-type ([16]; L139F): 1.8 fold | Ki [17]: 14 ± 2 µM | -fold increase in K i compared with wild-type ([17]; Y140A): 2.9 fold | Ki [18]: 6.5 ± 0.6 µM | -fold increase in K i compared with wild-type ([18]; Y140L): 1.3 fold | Ki [19]: 4 ± 0.5 µM | -fold increase in K i compared with wild-type ([19]; Y140I): 0.8 fold | Ki [20]: 7.6 ± 0.5 µM | -fold increase in K i compared with wild-type ([20]; Y140F): 1.6 fold | Ki [21]: 3.9 ± 0.8 µM | -fold increase in K i compared with wild-type ([21]; L141I): 0.8 fold | Ki [22]: 0.078 ± 0.006 µM | -fold increase in K i compared with wild-type ([22]; A335G): 0.016 fold | fold increased affinity ([22]; A335G vs WT): more than 60 fold | Ki [23]: > 200 µM | -fold increase in K i compared with wild-type ([23]; Y799A): > 40 fold | Ki [24]: 21 ± 2.7 µM | -fold increase in K i compared with wild-type ([24]; Y799F): 4.3 fold | IC50 [25]: 29 µM
Structure (SMILES): Cc1nc2c3c(ccn2c1C)[C@@H](O)[C@H](O)[C@@H](c1ccccc1)N3C [BYK73]
